Experiments:
human recombinant AR [1] = target: T1, human recombinant AR (Homo sapiens, UniProt P15121); assay: Inhibition of human recombinant AR, L-idose as substrate (NADPH oxidation at 340 nm); type: biochemical; conditions: human recombinant AR, 2 mM L-idose as substrate; mean ± S.E.M
T1 construct: made in house; host or cells: E. coli BL21(DE3)pLysS
Experimental: The human recombinant AR was expressed in BL21(DE3)pLysS E. coli cells and purified to electrophoretic homogeneity as previously described. The purified enzyme (specific activity 5.0 U/mg) was stored at −80 °C in 10 mM sodium phosphate buffer pH 7.0 containing 2 mM dithiothreitol and 30% (w/v) glycerol. AR activity was determined at 37 °C as previously described evaluating the decrease in absorbance at 340 nm linked to NADPH oxidation. […] One unit of enzyme activity is the amount that catalyzes the conversion of 1 μmol of substrate/min in the above assay conditions.
All compounds tested as aldose reductase inhibitors were dissolved in DMSO and added to the assay mixture containing 8 mU of purified AR. The reaction was started by addition of the substrate. The DMSO concentration in all the assays was kept constant at 0.5% (v/v) in order to avoid effects on AR activity.
The IC50 values were determined by nonlinear regression analysis using Prism GraphPad 6.0 fitting experimental data to the following equation:(1) vi/v0= Max−Min/1+( I/IC50)^slope +Min
In the equation, vi/v0, represents the ratio between the activity measured in the presence of the inhibitor and the activity measured in the absence of inhibitor; Max and Min represent the expected maximal and minimal value of the activity and were fixed at 1 and zero, respectively. Slope, which describes the steepness of curve in the transition region, was fixed at −1. For each compound, at least five different concentrations of inhibitor in the triplicate assay were analyzed.

human recombinant PTP1B [2] = target: T2, human recombinant PTP1B (Homo sapiens, UniProt P18031); assay: Inhibition of human recombinant PTP1B, p-nitrophenyl phosphate as substrate; type: biochemical; conditions: human recombinant PTP1B, pNPP as substrate; mean ± S.E.M
T2 sequence (P18031 1-435): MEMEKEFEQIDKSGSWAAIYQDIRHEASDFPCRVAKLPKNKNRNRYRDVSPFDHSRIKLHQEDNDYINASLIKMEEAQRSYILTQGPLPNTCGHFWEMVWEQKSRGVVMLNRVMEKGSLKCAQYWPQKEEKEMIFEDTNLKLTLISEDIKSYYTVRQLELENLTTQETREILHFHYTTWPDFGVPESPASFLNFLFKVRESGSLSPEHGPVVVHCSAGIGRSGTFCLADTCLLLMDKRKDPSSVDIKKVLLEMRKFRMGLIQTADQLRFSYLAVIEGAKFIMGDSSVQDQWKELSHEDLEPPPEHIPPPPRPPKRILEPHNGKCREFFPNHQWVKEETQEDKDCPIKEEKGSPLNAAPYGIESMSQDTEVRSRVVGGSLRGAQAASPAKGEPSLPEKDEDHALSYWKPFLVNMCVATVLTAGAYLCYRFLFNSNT
Experimental: PTP1B activity was determined as follow. […] After an appropriate interval time, the reaction was stopped diluting assay solution with 2 mL of KOH 0.1 M. The amount of p-nitrophenol released was determined measuring the absorbance of the solution at 400 nm using a spectrophotometer and a 1-cm optical pathlength (εmM of p-nitrophenol is 18). The IC50 value was determined measuring the pNPP hydrolysis rate in the presence of increasing inhibitor concentration. For each inhibitor, 15–16 different concentrations were used. All tests were carried out in triplicate and data obtained were normalized respect to control sample.

human recombinant AR [3] = target: T1, human recombinant AR; assay: Kinetic analysis of AR inhibition (Lineweaver-Burk and secondary plots); type: biochemical
Experimental: The kinetic analysis of compounds 4a, 4e and 4f was performed by measuring reaction rates with different L-idose concentrations s (S) in the absence and in the presence of different inhibitors concentrations. Data were analyzed by Linewever-Burk plots.

human recombinant AR [4] = target: T1, human recombinant AR; assay: Reversibility of AR inhibition (dialysis); type: biochemical
Experimental: In order to evaluate the reversibility of the inhibitory action, 8 mU of purified AR were assayed in the presence of 5 μM of compounds 4a, 4e and 4f. In these conditions less than 15% of the enzyme activity was measured in the presence of 2 mM L-idose as substrate. The mixture was then extensively dialysed on Amicon ultrafiltration membrane (cut off 10 KDa) against 10 mM sodium phosphate buffer, pH 7.0. After dialysis, the enzyme activity was again measured as above and compared to that of a mixture in the absence of inhibitor and treated in the same conditions.

human recombinant PTP1B [5] = target: T2, human recombinant PTP1B; assay: Reversibility assay (dilution test) with PTP1B; type: biochemical; conditions: saturating inhibitor, 60 min 37 °C, diluted 400 folds
Experimental: An aliquot of the enzyme was incubated for 60 min at 37 °C in the presence of saturating amount of PTP1B inhibitor. After this time, an aliquot of the enzyme was withdrawn and diluted 400 folds in the assay buffer containing 2.5 mM of pNPP. After 15 min, the reaction was stopped by adding 1 mL of KOH 0.2 M. The amount of pNP released was calculating measuring the absorbance at 400 nm of solutions using a spectrophotometer. Data obtained were normalized respect to control tests, which was carried out diluting the enzyme with DMSO, the solvent used to dissolve all compounds. Data reported in the figure represent the mean value +/− S.E.M. (n = 3).

HepG2 cells = assay: Cell viability, MTT assay, HepG2; type: cell-based, human; conditions: HepG2, 48 h, up to 50 μM
Experimental: (§1) Human liver cells (HepG2) and murine myoblasts (C2C12) were purchased by Sigma-Aldrich, which obtained them from the European Collection of Authenticated Cell Cultures (ECACC). HepG2 and C2C12 cells were grown in Dulbecco’s Modified Eagle’s medium (DMEM) supplemented with 10% foetal bovine serum (FBS), 2 mM glutamine, 100 IU/mL penicillin, 100 μg/mL streptomycin (Sigma-Aldrich, St. Louis, MO, USA), in a humidified atmosphere and with 5% CO2 at 37 °C. Differentiation of C2C12 was induced incubating murine myoblasts in DMEM supplemented with 2% horse serum. C2C12 cells were plated and grown until they reach 70% confluence. Then, cells were incubated in the presence of 2% horse serum for 96 h. Every 48 h, the medium was replaced with fresh medium. After 96 h, the degree of differentiation was evaluated analysing cells with a contrast phase microscope.
(§2) HepG2 and C2C12 cells were incubated in the presence of increasing concentrations of compounds 4e and 4f for 48 h at 37 °C. After this time, cells were washed with PBS and then incubated for 1 h with 0.5 mg/mL of MTT dissolved in complete medium. Then cells were washed and lysed with 300 μL of DMSO. The absorbance of solutions were evaluated using a microplate readers at 595 nm. All data were normalized respect to control experiment.

C2C12 cells = assay: Cell viability, MTT assay, C2C12; type: cell-based, murine; conditions: C2C12, 48 h
Experimental: as §1, §2

IC50 (human recombinant AR [1]): 5.3 ± 0.4 µM | IC50 (human recombinant PTP1B [2]): 12.7 ± 0.3 µM | AR Ki relative to K′i (human recombinant AR [3]; Ki higher than K′i): at least ten-fold higher | AR K′i (apparent dissociation constant, EIS complex) (human recombinant AR [3]; L-idose as substrate): 2.9 ± 0.12 µM | Mechanism of AR inhibition (human recombinant AR [3]; L-idose as substrate): uncompetitive inhibitors | Ki (human recombinant AR [3]; L-idose as substrate, read-out: AR Ki (apparent dissociation constant)): > 30 µM | AR enzyme activity recovered after removal of the inhibitor upon extensive dialysis (human recombinant AR [4]; 5 μM compound before dialysis): more than 90% | AR enzyme activity measured in the presence of compound (human recombinant AR [4]; 5 μM compound, 2 mM L-idose, before dialysis): less than 15% | Reversibility of PTP1B inhibition (human recombinant PTP1B [5]): reversible inhibitors
Compound: O=C(O)CCN1C(=O)/C(=C/c2ccc(OCCc3ccccc3)cc2)SC1=S [4f, 3-[(5Z)-4-Oxo-{5-[4-(2-phenylethoxy)phenyl]methylidene}-2-thioxothiazolidin-3-yl]propanoic acid]
Cytotoxicity (cell viability, MTT) (HepG2 cells): well tolerated | Concentration at which a reduction of cell viability was observed (C2C12 cells; highest concentration tested): 50 µM | Cytotoxicity (cell viability, MTT) (C2C12 cells; up to 50 μM): well tolerated
